Experimental data from paper PMC5467173, “Blood-brain-barrier spheroids as an in vitro screening platform for brain-penetrating agents” (Nature Communications, 2017).

Key:
[1] = test system: BBB spheroids (astrocytes, HBVP and hCMEC/D3 cells); assay: Evaluation of small molecule transport into BBB spheroids using MALDI-MSI; assay type: in vitro ADME, human; details: 10 μM, 24 h, 37 °C; 12 μm sections; 30 μm pixel step; nspheroid=150, ntissue=2
Experimental: BBB spheroids were established (using astrocytes, HBVP and hCMEC/D3 cells) for 48 h as described earlier. Approximately 150 spheroids per group were pooled into a 1.5 ml microcentrifuge tube in 1 ml of hCMEC/D3 working media. BKM120 or Dabrafenib was added into each tube at a final concentration of 10 μM and incubated for 24 h at 37 °C under constant rotation. Spheroids were washed 5 × with wash buffer (150 mM ammonium acetate in HPLC grade water, pH 7), and then transferred into an UltraFlux 0.2 ml PCR tube (BioExpress) in 200 μl of wash buffer. The spheroids were then, pooled at the bottom of the tube, and snap-frozen in a dry ice/ethanol bath. The top of the frozen tube was mounted onto a cryostat holder, and the bottom of the tube containing the spheroids was sectioned into 12 μm slices using a Microm HM550 cryostat, with the chamber and the specimen holder chilled at −26 °C. Sectioned tissues embedded in the frozen wash buffer were thaw-mounted onto indium tin oxide (ITO) coated microscopic slides (Bruker Daltonics) for MALDI-MSI, and regular positively charged glass slides for haematoxylin and eosin (H/E) staining. The tissues were allowed to dry for at least 15 min in a dessicator. […]

[2] = cited from earlier work
Text: Because most drugs are non-fluorescent, we explored an alternative strategy to detect drugs within the BBB spheroids using matrix-assisted laser desorption/ionization mass spectrometry imaging (MALDI-MSI).

[3] = test system: BBB spheroid surface barrier; assay: Co-incubation with high molecular weight dextran (integrity of spheroid surface barrier); details: drug 10 μM with FITC-dextran 70 kDa 10 μg ml^−1, 24 h; 88 μm depth; nspheroid=3–6
Experimental: Multicellular BBB spheroids were formed through co-culturing astrocytes, HBVP and either HBMEC or hCMEC/D3 as described earlier for 48 h. Spheroids were incubated with increasing concentration of VEGF-A (between 5 and 100 ng ml^−1) and 10 μg ml^−1 of TRITC-Dextran (155 kDa; Sigma-Aldrich) or FITC-Dextran (70 kDa; Sigma-Aldrich) in the appropriate working medium for 24 h at 37 °C with 5% CO2. Spheroids were washed 3 times with PBS (5 min each), transferred into a Nunc Lab-Tek II thin-glass 8-well chambered coverglass (Thermo Scientific) and imaged under a confocal microscope as described earlier. Quantification of spheroid permeability to fluorescent dextran was performed using ImageJ software (http://imagej.net/Fiji). The mean fluorescence intensity of the core of each spheroid at 88 μm depth was quantified and plotted using GraphPad Prism (version 7.0 software).
To examine if angiopep-2 affects the overall permeability of the spheroid surface barrier, spheroids were co-incubated with 10 μM of TAMRA-angiopep (or TAMRA-scramble) and FITC-dextran (70 kDa; 10 μg ml^−1) as described earlier for 3 h at 37 °C on a rotator. […] The mean TAMRA and FITC fluorescence intensity of the core of each spheroid at 88 μm depth was quantified using ImageJ software and plotted using GraphPad Prism.

[4] = test system: multicellular BBB spheroids (astrocytes, HBVP and hCMEC/D3); assay: Transport of fluorescently labelled peptides / CPP screen in multicellular BBB spheroids (hCMEC/D3), confocal microscopy; assay type: in vitro ADME, human
Experimental: Sterile 1% agarose (w/v) was prepared by adding […] of molecular biology grade agarose (Bio-rad) into 50 ml of PBS in a conical flask, and boiled in a microwave until completely dissolved. The melted agarose solution was transferred into a sterile tissue culture hood, and 50 μl of the solution was dispensed into each well of a 96-well plate while it was still hot using a multi-channel pipette, and allowed to cool/solidify (∼15 min). Primary human astrocytes, HBVP and HBMEC were released by trypsin/EDTA (Thermo Scientific) and resuspended in HBMEC working medium. The concentration of each cell type was determined using a haemocytometer. 1 × 10^3 of each cell type was seeded onto the agarose gel in each well of the 96-well plate in a 1:1:1 ratio (final volume=100 μl). Cells were placed in a humidified incubator at 37 °C with 5% CO2, and 95% natural air for 48–72 h to allow for the assembly of multicellular BBB spheroids. For spheroid formation using the immortalized hCMEC/D3 EC line: hCMEC/D3, astrocytes and HBVP were released by trypsin/EDTA and resuspended in hCMEC/D3 working medium. 1.5 × 10^3 of each cell type were seeded onto the agarose gel in each well of the 96-well plate in a 1:1:1 ratio, and spheroids were allowed to form as described above.
Angiopep-2 (or scramble) peptide labelled with a Cy5 was added into each tube at a final concentration of 5 and 10 μM, and incubated for 3 h at 37 °C on a rotator. Spheroids were washed with PBS, fixed with 3.7% formaldehyde and imaged using a confocal microscope as described in earlier sections. […] The same methodology was applied for angiopep-2/scramble peptide labelled with a TAMRA (tetramethylrhodamine) dye. To inhibit transcytosis, spheroids were incubated with each peptide (5 μM final concentration) in cold working medium (on ice) for 3 h. For cryo-sectioning, spheroids were embedded in optimum cutting temperature compound (Tissue-Tek, Sakura Finetek, Torrance, CA), frozen on dry ice and sliced into 10 μm sections. Spheroid sections were imaged under a Nikon epi-fluorescence inverted microscope. […]

[5] = Stability in hCMEC/D3 working media containing 2% human serum; assay type: in vitro ADME; details: Cy5.5-CPP 5 μM in hCMEC/D3 working media (2% human serum), 37 °C, LC-MS extracted ion current, (EICt3/EICt0) × 100
Experimental: Cy5.5-angiopep and Cy5.5-scramble. Angiopep and scramble peptides (50 μM) were incubated in hCMEC/D3 working media (containing 2% human serum) at 37 °C. […] The material was resuspended in 30 μl of 50:50 water:acetonitrile containing 0.1% TFA. […] The process was repeated (n=3) for each peptide.

brain parenchyma = assay: Ex vivo imaging of angiopep-2 in mouse brain after tail vein injection; details: Cy5.5-labelled peptide, 100 μg via tail vein, mice killed after 24 h
Experimental: Cy5.5-angiopep-2 or Cy5.5-scramble were diluted to a final concentration of 1 mg ml^−1 in 0.9% NaCl irrigation solution (Hospira, Lake Forest, IL). 100 μl of each peptide (total of 100 μg) was administered intravenously via tail vein injection. After 24 h, mice were killed (by CO2 asphyxiation), and immediately perfused with PBS followed by 10% formalin solution (Sigma-Aldrich). Brains were excised, and a coronal cut through the cerebral cortex was made with a sharp scalpel. The brains were washed several times with PBS containing 0.05% Tween-20, and incubated with DyLight 488 lectin (Vector Laboratories, Burlingame, CA) and Hoechst dye (Life Technologies; 1:1,000 dilution) for 1 h in PBS containing 0.02% Tween-20. This was followed by 3 washes (15 min each) with PBS containing 0.05% Tween-20. […] The brain tissue was imaged under a confocal microscope using a × 40 oil immersion objective. Z-slices captured through each spheroid (up to 100 μm-deep) were merged to generate a 2D maximum intensity projection using the ZEN blue imaging software (version 2012). Animal experiments described here are listed in the Brigham and Women’s Hospital Animal Experimentation Protocol 2016N000300 Translational Neurooncology Core (BWH IACUC approved 2016).

[6] = test system: multicellular BBB spheroids (astrocytes, HBVP and HBMEC); assay: Transport of fluorescently labelled peptides into multicellular BBB spheroids (primary HBMEC), confocal microscopy; assay type: in vitro ADME, human
Experimental: Multicellular BBB spheroids (composed of astrocytes, HBVP and HBMEC (or hCMEC/D3)) were established for 48–72 h as described earlier, and pooled into a 1.5 ml Lobind microcentrifuge tube (Eppendorf) in 1.0 ml HBMEC (or hCMEC/D3) working media. […] Spheroids were washed with PBS, fixed with 3.7% formaldehyde and imaged using a confocal microscope as described in earlier sections. The mean fluorescence intensity inside each spheroid at 88 μm depth was quantified using ImageJ software and plotted using GraphPad Prism. […] To inhibit transcytosis, spheroids were incubated with each peptide (5 μM final concentration) in cold working medium (on ice) for 3 h. For cryo-sectioning, spheroids were embedded in optimum cutting temperature compound (Tissue-Tek, Sakura Finetek, Torrance, CA), frozen on dry ice and sliced into 10 μm sections. Spheroid sections were imaged under a Nikon epi-fluorescence inverted microscope.

[7] = test system: hCMEC/D3 / HBVP / astrocyte triple co-culture transwell model; assay type: in vitro ADME, human
Experimental: Both the apical and basal sides of 24-well transwell insert (0.4 μm pore size; Greiner Bio-One, Cat. # 662,641) were coated with rat-tail collagen (5 μg ml^−1 in PBS; Olaf Pharmaceuticals, Worcester, MA) overnight at 4 °C. Each transwell was inverted, and 5 × 10^4 HBVP cells (in 50 μl pericyte medium) were seeded on the basal side of the insert. The inserts were encased in an inverted plate, and allowed to adhere in a humidified incubator for 2 h at 37 °C with 5% CO2. Inserts were then removed and placed within a 24-well plate (upright) containing 300 μl pericyte medium, ensuring that the HBVP cells on the basal side of the insert was properly submerged in the medium. […] hCMEC/D3 cells were seeded on the apical side of the insert (in 200 μl volume) in EGM-2. In a separate 24-well plate, 5.0 × 10^4 astrocytes were seeded in AGM. […] TEER measurements of inserts without cells were subtracted from TEER values obtained from inserts containing cells (measured in ohms (Ω)). […]
After 84 h of co-culture in the transwell, TAMRA- angiopep-2 or TAMRA-scramble were added into the apical side of the insert at a final concentration of 10 μM. […] To assess the apical-to-basolateral permeability, the mean fluorescence intensity of the basal side of the transwell was quantified over time using ImageJ software and plotted using GraphPad Prism.

Nc1cc(C(F)(F)F)c(-c2cc(N3CCOCC3)nc(N3CCOCC3)n2)cn1 [BKM120]
Drug detected in sections of BBB spheroids by MALDI-MSI [1]: dramatic accumulation
BBB penetrance [2]: known to cross the BBB
Effect on ability of BBB spheroids to restrict entry of high molecular weight dextran [3]: did not affect

CC(C)(C)c1nc(-c2cccc(NS(=O)(=O)c3c(F)cccc3F)c2F)c(-c2ccnc(N)n2)s1 [dabrafenib]
Drug detected in sections of BBB spheroids by MALDI-MSI [1]: not detected
BBB penetrance [2]: limited BBB penetrance
Effect on ability of BBB spheroids to restrict entry of high molecular weight dextran [3]: did not affect

LRRERQSRLRRERQSR [DPV15]
Influx rate at earlier time points (15 min–1 h) [4]: highest influx rate

RKKRRQRRR [HIV-1 Tat, established brain-penetrating standard]
product remaining after 3 h in working media [5]: 50%

VPALR [Bip(1), Cy5.5-labelled hydrophobic CPP from natural protein]
Influx rate at earlier time points (15 min–1 h) [4]: highest influx rate

VSALK [Bip(2), Cy5.5-labelled hydrophobic CPP from natural protein]
Influx rate at earlier time points (15 min–1 h) [4]: highest influx rate

angiopep-2
Accumulation in the brain parenchyma in vivo (fluorescence of brain cryosections) (brain parenchyma): extravasation and accumulation
Influx of TAMRA-labelled peptide on co-incubation with FITC-dextran ([6]; 10 μM peptide, FITC-dextran 70 kDa 10 μg ml^−1, 3 h, 37 °C, 88 μm depth, nspheroid=3–6, nexperiment=3, versus scrambled peptide): significantly higher influx
Peptide level in the core of fixed, cryosectioned spheroids (fluorescence microscopy) ([6]; 10 μm cryosections, epi-fluorescence): high level
Influx of Cy5-labelled peptide at 4 °C (transcytosis inhibited) versus 37 °C ([6]; spheroids with primary HBMECs, 10 μM, 3 h, 88 μm depth): significantly reduced
Influx of Cy5-labelled peptide into spheroid (mean Cy5 intensity at 88 μm depth) ([6]; spheroids with primary HBMECs, 5 and 10 μM, 3 h, 37 °C, confocal microscopy, compared with scrambled control, nspheroid=10, nexperiment=3): substantial influx
Apical-to-basolateral permeability in co-culture transwell compared to inserts with no ECs [7]: significantly lower permeability
Transwell permeability of angiopep-2 versus scrambled control [7]: unable to differentiate
